The record followed here is ChEMBL document CHEMBL5728961, “Compounds useful for treating gastrointestinal tract disorders” (2022).

Assay [1] addresses T1, Sodium/hydrogen exchanger 3 (Homo sapiens, UniProt P48764).
T1 sequence (P48764 whole entry): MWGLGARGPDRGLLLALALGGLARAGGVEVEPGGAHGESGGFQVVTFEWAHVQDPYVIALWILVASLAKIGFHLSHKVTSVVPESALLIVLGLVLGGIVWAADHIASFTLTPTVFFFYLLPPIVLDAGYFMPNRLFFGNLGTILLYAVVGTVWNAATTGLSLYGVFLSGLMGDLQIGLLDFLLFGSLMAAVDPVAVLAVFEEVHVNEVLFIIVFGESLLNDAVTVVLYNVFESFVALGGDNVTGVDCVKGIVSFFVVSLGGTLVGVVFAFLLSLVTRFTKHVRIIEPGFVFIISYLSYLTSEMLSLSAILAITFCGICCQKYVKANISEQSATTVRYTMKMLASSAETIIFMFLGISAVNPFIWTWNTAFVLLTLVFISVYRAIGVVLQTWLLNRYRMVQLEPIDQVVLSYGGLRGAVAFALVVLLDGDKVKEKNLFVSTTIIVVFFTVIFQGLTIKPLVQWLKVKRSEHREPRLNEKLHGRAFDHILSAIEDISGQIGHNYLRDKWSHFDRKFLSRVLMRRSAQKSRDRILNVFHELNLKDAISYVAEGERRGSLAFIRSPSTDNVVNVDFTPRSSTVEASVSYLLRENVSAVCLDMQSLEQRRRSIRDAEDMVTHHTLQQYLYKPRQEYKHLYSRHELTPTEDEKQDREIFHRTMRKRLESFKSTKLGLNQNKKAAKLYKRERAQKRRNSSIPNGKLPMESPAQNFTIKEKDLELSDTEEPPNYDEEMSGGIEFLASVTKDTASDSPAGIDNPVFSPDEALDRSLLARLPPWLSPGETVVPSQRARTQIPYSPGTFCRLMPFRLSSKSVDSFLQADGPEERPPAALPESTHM
The assay can be described thus: Cell-Based Assay of NHE-3 Activity (Persistent Inhibition): The ability of compounds to inhibit human and rat NHE-3-mediated Na+ dependent H+ antiport after application and washout was measured using a modification of the pH sensitive dye method described above. PS120 fibroblasts stably expressing human NHE3 and NHERF2 were obtained from Mark Donowitz (Baltimore, Md.). Opossum kidney (OK) cells were obtained from the ATCC and propagated per their instructions. The rat NHE-3 gene was introduced into OK cells via electroporation, and cells were seeded into 96 well plates and grown overnight. Medium was aspirated from the wells, cells were washed once with NaCl-HEPES buffer (100 mM NaCl, 50 mM HEPES, 10 mM glucose, 5 mM KCl, 2 mM CaCl2, 1 mM MgCl2, pH 7.4), then overlayed with NaCl-HEPES buffer containing 0-30 μM test compound. After a 60 min incubation at room temperature, the test drug containing buffer was aspirated from the cells. Following aspiration, cells were washed once with NaCl-HEPES buffer without drug, then incubated for 30 min at 37° C. with NH4Cl-HEPES buffer (20 mM NH4Cl, 80 mM NaCl, 50 mM HEPES, 5 mM KCl, 2 mM CaCl2, 1 mM MgCl2, pH 7.4) containing 5 μM BCECF-AM. Cells were washed once with Ammonium free, Na+-free HEPES (100 mM choline, 50 mM HEPES, 10 mM glucose, 5 mM KCl, 2 mM CaCl2, 1 mM MgCl2, pH 7.4) and incubated in the same buffer for 10 minutes at room temperature to lower intracellular pH. NHE-3-mediated recovery of neutral intracellular pH was initiated ([…]) by addition of Na-HEPES buffer. […] Changes in intracellular pH were monitored using a FLIPR Tetra® (Molecular Devices, Sunnyvale, Calif.) by excitation at λex 439 to 505 nm, and measuring BCECF fluorescence at λem 538 nm. The initial rate of the fluorescence ratio change was used as a measure of NHE-mediated Na+/H+ activity, and reported as the change in fluorescence ratio per minute.

Assay [2] concerns the target T1, Sodium/hydrogen exchanger 3. Put plainly: Cell-Based Assay of NHE-3 Activity (Pre-Incubation Inhibition): Rat and human NHE-3-mediated Na+-dependent H+ antiport was measured using a modification of the pH sensitive dye method originally reported by Paradiso (Proc. Natl. Acad. Sci. USA. (1984) 81(23): 7436-7440). PS120 fibroblasts stably expressing human NHE3 and NHERF2 were obtained from Mark Donowitz (Baltimore, Md.). Opossum kidney (OK) cells were obtained from the ATCC and propagated per their instructions. The rat NHE-3 gene (GenBank M85300) was introduced into OK cells via electroporation, and cells were seeded into 96 well plates and grown overnight. Medium was aspirated from the wells then incubated for 30 min at 37° C. with NH4Cl-HEPES buffer (20 mM NH4Cl, 80 mM NaCl, 50 mM HEPES, 5 mM KCl, 2 mM CaCl2, 1 mM MgCl2, pH 7.4) containing 5 μM BCECF-AM. Cells were washed once with Ammonium free, Na+-free HEPES (100 mM choline, 50 mM HEPES, 10 mM glucose, 5 mM KCl, 2 mM CaCl2, 1 mM MgCl2, pH 7.4) and incubated in the same buffer for 10 minutes at room temperature to lower intracellular pH with 0-30 μM test compound. […] Changes in intracellular pH were monitored using a FLIPR Tetra® (Molecular Devices, Sunnyvale, Calif.) by excitation at λex 439 to 505 nm, and measuring BCECF fluorescence at λem 538 nm. The initial rate of the fluorescence ratio change was used as a measure of NHE-mediated Na+/H+ activity, and reported as the change in fluorescence ratio per minute.

By IC50 is commonly meant the point on the concentration scale where inhibition reaches its midpoint. On to `O=C(NCCCCNC(=O)NCCOCCN1CC[C@H](NS(=O)(=O)c2ccc(O[C@H]3c4cc(Cl)cc(Cl)c4C[C@@H]3N3CCNCC3)c(F)c2)C1)NCCOCCN1CC[C@H](NS(=O)(=O)c2ccc(O[C@H]3c4cc(Cl)cc(Cl)c4C[C@@H]3N3CCNCC3)c(F)c2)C1`, for which the concentration for half-maximal inhibition (IC50) in assay [1] and in assay [2] was below 100 nM in each case.
